Measured values from ChEMBL document CHEMBL3885861, “Open TG-GATES”.

Species: Rattus norvegicus
Experiment: Open TG-GATES - Regimen: Single
Type: toxicity, organism-based, Sprague-Dawley
Parameters: regimen Single, gender Male, age 6 weeks
Details: in vivo, po, route gavage; for APTT / Bas / Eos / Fbg / Hb / Ht / Lym / MCH / MCHC / MCV / Mono / Neu / PT / Plat / RBC / Ret / WBC: tissue Blood; for KIDNEY_L / KIDNEY_R / KIDNEY_TOTAL: tissue Kidney; for LIVER: tissue Liver; for A/G / ALP / ALT / AST / BUN / CRE / Ca / Cl / DBIL / GLC / IP / K / LDH / Na / PL / RALB / TBIL / TC / TG / TP / gamma-GTP: tissue Plasma
[1] = 0 mg/kg, 3 h, dose level Control
[2] = 0 mg/kg, 6 h, dose level Control
[3] = 0 mg/kg, 9 h, dose level Control
[4] = 0 mg/kg, 24 h, dose level Control

## Nc1nc(N)c2nc(-c3ccccc3)c(N)nc2n1
[1]
  TERMINAL_BW: 212 g
  APTT: 16.9 s
  Bas: 0%
  Eos: 1%
  Fbg: 287.4 mg/dL
  Hb: 13.9 g/dL
  Ht: 42%
  Lym: 79.2%
  MCH: 21.4 pg
  MCHC: 33%
  MCV: 64.6 fL
  Mono: 3.2%
  Neu: 16%
  PT: 14.2 s
  Plat: 114.1 x10_4/uL
  RBC: 651 x10_4/ul
  Ret: 7.4%
  WBC: 92.6 x10_2/uL
  KIDNEY_L: 1 g
  KIDNEY_R: 1 g
  KIDNEY_TOTAL: 1.9 g
  LIVER: 9.3 g
  A/G: 1
  ALP: 1479.4 IU/L
  ALT: 44.2 IU/L
  AST: 76.6 IU/L
  BUN: 9.4 mg/dL
  CRE: 0.2 mg/dL
  Ca: 11 mg/dL
  Cl: 105.2 meq/L
  DBIL: 0.008 mg/dL
  GLC: 173.4 mg/dL
  IP: 9.2 mg/dL
  K: 3.9 meq/L
  LDH: 58.4 IU/L
  Na: 143.2 meq/L
  PL: 143.4 mg/dL
  RALB: 2.6 g/dL
  TBIL: 0.06 mg/dL
  TC: 79.6 mg/dL
  TG: 50.8 mg/dL
  TP: 5.3 g/dL
  gamma-GTP: 1 IU/L
[2]
  TERMINAL_BW: 211.8 g
  APTT: 16.8 s
  Bas: 0%
  Eos: 0.4%
  Fbg: 302.8 mg/dL
  Hb: 13.9 g/dL
  Ht: 42.3%
  Lym: 77.2%
  MCH: 21.3 pg
  MCHC: 32.9%
  MCV: 64.8 fL
  Mono: 2.6%
  Neu: 19%
  PT: 14 s
  Plat: 123.2 x10_4/uL
  RBC: 653.2 x10_4/ul
  Ret: 7.4%
  WBC: 93.6 x10_2/uL
  KIDNEY_L: 1 g
  KIDNEY_R: 1 g
  KIDNEY_TOTAL: 1.9 g
  LIVER: 9.6 g
  A/G: 0.9
  ALP: 1424.2 IU/L
  ALT: 34.6 IU/L
  AST: 69.2 IU/L
  BUN: 9.6 mg/dL
  CRE: 0.2 mg/dL
  Ca: 10.8 mg/dL
  Cl: 104.6 meq/L
  DBIL: 0.012 mg/dL
  GLC: 179.2 mg/dL
  IP: 9.7 mg/dL
  K: 4.2 meq/L
  LDH: 57.2 IU/L
  Na: 142.8 meq/L
  PL: 146.8 mg/dL
  RALB: 2.6 g/dL
  TBIL: 0.066 mg/dL
  TC: 77.8 mg/dL
  TG: 84 mg/dL
  TP: 5.3 g/dL
  gamma-GTP: 1.2 IU/L
[3]
  TERMINAL_BW: 210.8 g
  APTT: 16.3 s
  Bas: 0.2%
  Eos: 1%
  Fbg: 304.2 mg/dL
  Hb: 13.6 g/dL
  Ht: 41.1%
  Lym: 73%
  MCH: 20.5 pg
  MCHC: 33%
  MCV: 62.2 fL
  Mono: 2%
  Neu: 23.2%
  PT: 14 s
  Plat: 119.1 x10_4/uL
  RBC: 661.2 x10_4/ul
  Ret: 7.1%
  WBC: 83.6 x10_2/uL
  KIDNEY_L: 1 g
  KIDNEY_R: 1 g
  KIDNEY_TOTAL: 1.9 g
  LIVER: 8.5 g
  A/G: 1
  ALP: 1497.4 IU/L
  ALT: 36.6 IU/L
  AST: 68 IU/L
  BUN: 10 mg/dL
  CRE: 0.2 mg/dL
  Ca: 10.6 mg/dL
  Cl: 106 meq/L
  DBIL: 0.008 mg/dL
  GLC: 173.8 mg/dL
  IP: 9.4 mg/dL
  K: 3.9 meq/L
  LDH: 53.2 IU/L
  Na: 143.6 meq/L
  PL: 132.6 mg/dL
  RALB: 2.5 g/dL
  TBIL: 0.058 mg/dL
  TC: 74 mg/dL
  TG: 41.4 mg/dL
  TP: 5.2 g/dL
  gamma-GTP: 1.4 IU/L
[4]
  TERMINAL_BW: 228.1 g
  APTT: 17.1 s
  Bas: 0%
  Eos: 1%
  Fbg: 291 mg/dL
  Hb: 14 g/dL
  Ht: 41.9%
  Lym: 76%
  MCH: 21.5 pg
  MCHC: 33.4%
  MCV: 64.3 fL
  Mono: 2.2%
  Neu: 19.8%
  PT: 13.7 s
  Plat: 120.8 x10_4/uL
  RBC: 652 x10_4/ul
  Ret: 6.9%
  WBC: 78.2 x10_2/uL
  KIDNEY_L: 1 g
  KIDNEY_R: 1 g
  KIDNEY_TOTAL: 2 g
  LIVER: 10.9 g
  A/G: 0.9
  ALP: 1674.6 IU/L
  ALT: 47.4 IU/L
  AST: 72.2 IU/L
  BUN: 15 mg/dL
  CRE: 0.2 mg/dL
  Ca: 11.2 mg/dL
  Cl: 104.2 meq/L
  DBIL: 0.01 mg/dL
  GLC: 188.6 mg/dL
  IP: 8.2 mg/dL
  K: 4.2 meq/L
  LDH: 72.4 IU/L
  Na: 142.6 meq/L
  PL: 158.6 mg/dL
  RALB: 2.7 g/dL
  TBIL: 0.044 mg/dL
  TC: 80.2 mg/dL
  TG: 109.8 mg/dL
  TP: 5.5 g/dL
  gamma-GTP: 1 IU/L
15 mg/kg, 3 h, dose level Low
  TERMINAL_BW: 213.1 g
  APTT: 16.6 s
  Bas: 0%
  Eos: 1%
  Fbg: 307 mg/dL
  Hb: 14.2 g/dL
  Ht: 42.9%
  Lym: 78.2%
  MCH: 21.5 pg
  MCHC: 33%
  MCV: 65.1 fL
  Mono: 3.4%
  Neu: 17%
  PT: 14.3 s
  Plat: 129.9 x10_4/uL
  RBC: 659.2 x10_4/ul
  Ret: 7.7%
  WBC: 86.3 x10_2/uL
  KIDNEY_L: 1 g
  KIDNEY_R: 1 g
  KIDNEY_TOTAL: 2 g
  LIVER: 9.6 g
  A/G: 0.9
  ALP: 1340.6 IU/L
  ALT: 39.8 IU/L
  AST: 73.2 IU/L
  BUN: 10.4 mg/dL
  CRE: 0.2 mg/dL
  Ca: 11 mg/dL
  Cl: 105.2 meq/L
  DBIL: 0.008 mg/dL
  GLC: 170.2 mg/dL
  IP: 8.6 mg/dL
  K: 4.6 meq/L
  LDH: 56.2 IU/L
  Na: 141.2 meq/L
  PL: 144 mg/dL
  RALB: 2.7 g/dL
  TBIL: 0.05 mg/dL
  TC: 76.2 mg/dL
  TG: 81.4 mg/dL
  TP: 5.6 g/dL
  gamma-GTP: 1.2 IU/L
15 mg/kg, 6 h, dose level Low
  TERMINAL_BW: 211.9 g
  APTT: 16.3 s
  Bas: 0.4%
  Eos: 1%
  Fbg: 292.4 mg/dL
  Hb: 13.8 g/dL
  Ht: 41.6%
  Lym: 76%
  MCH: 21.2 pg
  MCHC: 33.2%
  MCV: 63.9 fL
  Mono: 2.6%
  Neu: 19.6%
  PT: 14.3 s
  Plat: 117.9 x10_4/uL
  RBC: 651.8 x10_4/ul
  Ret: 7.8%
  WBC: 88.3 x10_2/uL
  KIDNEY_L: 1 g
  KIDNEY_R: 1 g
  KIDNEY_TOTAL: 1.9 g
  LIVER: 9 g
  A/G: 1
  ALP: 1353.4 IU/L
  ALT: 38.2 IU/L
  AST: 72.8 IU/L
  BUN: 9.2 mg/dL
  CRE: 0.2 mg/dL
  Ca: 10.8 mg/dL
  Cl: 105.6 meq/L
  DBIL: 0.008 mg/dL
  GLC: 167.8 mg/dL
  IP: 9.9 mg/dL
  K: 4.4 meq/L
  LDH: 56.4 IU/L
  Na: 142.6 meq/L
  PL: 138.4 mg/dL
  RALB: 2.6 g/dL
  TBIL: 0.062 mg/dL
  TC: 77 mg/dL
  TG: 49.8 mg/dL
  TP: 5.4 g/dL
  gamma-GTP: 1.2 IU/L
15 mg/kg, 9 h, dose level Low
  TERMINAL_BW: 206.1 g
  APTT: 16.7 s
  Bas: 0%
  Eos: 0.8%
  Fbg: 322.4 mg/dL
  Hb: 14 g/dL
  Ht: 42.2%
  Lym: 77.6%
  MCH: 21.2 pg
  MCHC: 33.2%
  MCV: 64 fL
  Mono: 2.4%
  Neu: 18.2%
  PT: 13.9 s
  Plat: 128.2 x10_4/uL
  RBC: 659.6 x10_4/ul
  Ret: 7.5%
  WBC: 82.6 x10_2/uL
  KIDNEY_L: 1 g
  KIDNEY_R: 1 g
  KIDNEY_TOTAL: 2 g
  LIVER: 8.3 g
  A/G: 0.9
  ALP: 1426 IU/L
  ALT: 39 IU/L
  AST: 67.4 IU/L
  BUN: 9.2 mg/dL
  CRE: 0.2 mg/dL
  Ca: 10.8 mg/dL
  Cl: 106.2 meq/L
  DBIL: 0.006 mg/dL
  GLC: 163 mg/dL
  IP: 9.9 mg/dL
  K: 4.1 meq/L
  LDH: 47.8 IU/L
  Na: 143 meq/L
  PL: 144 mg/dL
  RALB: 2.7 g/dL
  TBIL: 0.056 mg/dL
  TC: 84.8 mg/dL
  TG: 41.4 mg/dL
  TP: 5.5 g/dL
  gamma-GTP: 1.2 IU/L
15 mg/kg, 24 h, dose level Low
  TERMINAL_BW: 226.6 g
  APTT: 19 s
  Bas: 0%
  Eos: 1%
  Fbg: 289.6 mg/dL
  Hb: 14 g/dL
  Ht: 41.7%
  Lym: 83.6%
  MCH: 21.1 pg
  MCHC: 33.6%
  MCV: 62.7 fL
  Mono: 1.6%
  Neu: 12.8%
  PT: 14 s
  Plat: 121.6 x10_4/uL
  RBC: 664.8 x10_4/ul
  Ret: 6.2%
  WBC: 84.7 x10_2/uL
  KIDNEY_L: 1 g
  KIDNEY_R: 1 g
  KIDNEY_TOTAL: 2 g
  LIVER: 10.5 g
  A/G: 0.9
  ALP: 1713.2 IU/L
  ALT: 44.8 IU/L
  AST: 67.4 IU/L
  BUN: 15.2 mg/dL
  CRE: 0.2 mg/dL
  Ca: 11 mg/dL
  Cl: 105.4 meq/L
  DBIL: 0.012 mg/dL
  GLC: 183.2 mg/dL
  IP: 8.3 mg/dL
  K: 4.1 meq/L
  LDH: 58.4 IU/L
  Na: 143.6 meq/L
  PL: 153.2 mg/dL
  RALB: 2.7 g/dL
  TBIL: 0.044 mg/dL
  TC: 79.4 mg/dL
  TG: 87.8 mg/dL
  TP: 5.4 g/dL
  gamma-GTP: 1 IU/L
